Test results taken from patent US20030125265A1, “Anti-estrogen receptor agents for chemotherapy” (priority 2001, published 2003).
One block for each compound: values may come before it. Where a SMILES comes first, the peptide text is derived from it. [ ]: non-standard residue; d: D form. The star is where a group is joined. Nva = CCC[C@H](N)C(=O)O; Cbz = O=C(OCc1ccccc1)*; OtBu = CC(C)(C)O*

Legend:
[1] = tested on: MCF-7 cells; test: Thymidine incorporation, estrogen-induced DNA synthesis; type: cell-based; details: MCF-7, estrogen 10 nM, 20 hours; emodin 10 and 40 μM, tamoxifen 10 μM (FIG. 2A)
[2] = tested on: estrogen receptor; test: Estrogen receptor protein level by immunoblotting in MCF-7 cells
[3] = tested on: Rb phosphorylation in MCF-7 cells; test: Western blotting of Rb phosphorylation status; type: cell-based; details: MCF-7, in the presence of estrogen (FIG. 2B)
[4] = tested on: estrogen receptor; test: Effect of protease inhibitors on emodin-induced estrogen receptor depletion, western blot; type: cell-based; details: for estrogen receptor protein level with emodin plus protease inhibitor: MCF-7, 40 μM emodin simultaneously, chloroquine 100 μM, EGTA 5 mM, MG115 25 μM, PSI 25 mM (FIG. 6)
[5] = target: T1, estrogen receptor (Homo sapiens, UniProt P03372); test: Estrogen-induced estrogen receptor degradation with proteasome inhibitor, western blot; type: cell-based; details: MCF-7, 10 nM estradiol, 24 hours (FIG. 5)
T1 construct: MCF-7, T47D, and ZR-75-1, which are estrogen receptor positive cell lines, were used; endogenous in cells; host or cells: MCF-7
T1 sequence (P03372 1-595): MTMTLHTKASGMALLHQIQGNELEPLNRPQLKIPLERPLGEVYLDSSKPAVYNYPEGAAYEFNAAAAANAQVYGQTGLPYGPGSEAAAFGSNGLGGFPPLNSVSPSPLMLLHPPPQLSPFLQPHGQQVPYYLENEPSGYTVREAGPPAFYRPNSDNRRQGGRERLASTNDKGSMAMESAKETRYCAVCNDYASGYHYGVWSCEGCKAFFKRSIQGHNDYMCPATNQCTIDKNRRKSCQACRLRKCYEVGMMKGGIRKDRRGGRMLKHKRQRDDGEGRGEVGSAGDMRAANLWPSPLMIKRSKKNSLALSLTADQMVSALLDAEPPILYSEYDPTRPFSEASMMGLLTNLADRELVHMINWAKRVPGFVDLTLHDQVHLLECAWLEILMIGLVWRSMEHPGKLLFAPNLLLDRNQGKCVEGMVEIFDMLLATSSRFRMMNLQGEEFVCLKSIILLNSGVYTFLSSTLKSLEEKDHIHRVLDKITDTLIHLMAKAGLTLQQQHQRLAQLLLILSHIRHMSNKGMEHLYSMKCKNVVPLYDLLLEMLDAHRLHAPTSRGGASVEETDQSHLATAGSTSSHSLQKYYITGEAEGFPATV
Method: For the control, ethanol and DMSO were added. The protein was extracted and quantified by western blot analysis to detect estrogen receptor and actin (for protein loading).

[6] = tested on: estrogen receptor; test: Pulse-chase stability of estrogen receptor protein; type: cell-based; details: MCF-7, 40 μM emodin, chase 1 to 4 hours (FIG. 4)
Method: Metabolic labeling of protein, immunoprecipitation and gel electrophoresis—MCF-7 cells were incubated for 1 h at 37° C. in methionine-free medium containing 5% dialyzed, heat-inactivated FCS, with or without emodin (40 μM). [^35S] methionine was added to yield 100 μCi/ml in the medium. Incubation was continued for an additional hour. Cells were then rinsed twice with warm, complete medium and were incubated in complete medium with or without emodin (40 μM) at various intervals. Labeled cells were lysed in RIPA-B lysis buffer. Anti-estrogen receptor antibody (D75) immunoprecipitation was performed from 500 μg total cellular protein overnight at 4° C. 20 μg of rabbit anti-rat antibody was added to the mixture and incubated for 45 minutes at 4° C. Protein A-agarose was added and incubated for 45 minutes at 4° C. The mixture was washed three times with cold PBS. […] The intensity of the proteins was quantitated by NIH Image. Results were calculated as the percentage of the controls measured at the start of the chase period.
The effect on estrogen receptor was not a consequence of cytotoxicity, because MCF-7 cell morphology, as well as viability as assessed by trypan blue exclusion, were not affected after 4 hour treatment of emodin. […] In FIG. 4C, proteins were quantitated by NIH Image software and plotted as the percentage of the value at the beginning of the chase.

[7] = tested on: estrogen receptor; test: Estrogen receptor protein level by immunoblotting in ZR 75-1 cells; type: cell-based; details: ZR 75-1, 40 μM emodin, different time intervals (FIG. 3D)
Method: In a specific embodiment, emodin was tested for downregulation of estrogen receptor. […] Estrogen receptor protein levels in MCF-7 cells were measured by immunoblotting with monoclonal antibody D75. The same membrane was stripped and reprobed with anti-β-actin antibody to show the protein loading. […] The proteins were quantitated by NIH Image software and plotted as the percentage control (without emodin) and normalized with actin in FIG. 3B. […] ZR75-1 estrogen receptor positive breast cancer cell lines were treated with emodin (40 μM) for different time points. Immunoblot analysis for estrogen receptor were performed.

[8] = tested on: estrogen receptor; test: Estrogen receptor protein level in T47D cells; type: cell-based; details: 40 μM emodin, different time intervals
[9] = tested on: breast tumor development in MMTV-neu transgenic mice; test: Chemoprevention of breast tumor development in MMTV-neu transgenic mice; type: in vivo; details: MMTV-proto-neu female mice, emodin 0.5 mg or 1.0 mg weekly i.p. from 15 weeks of age (FIG. 1A)
Method: (§1) The following example addresses whether a compound may be used as a chemoprevention agent. In a particular embodiment, emodin is tested for its use as a chemopreventive agent. Specifically, a MMTV-neu transgenic mouse model and a MMTV-v-Ha-ras transgenic mouse model were utilized to determine the effects of emodin on the development of breast tumor. In these models, the proto-neu oncogene and v-Ha-ras oncogene, respectively, were under the transcriptional control of the murine mammary tumor virus (MMTV) long terminal repeat (LTR). The transgenic mice develop multiple mammary tumors spontaneously. For FIG. 1A, MMTV-proto-neu female transgenic mice were randomly divided into three groups. […] Mice tumor development was monitored weekly. For FIG. 1B, MMTV-v-Ha-ras transgenic mice were administered emodin (n=7) (1 mg/0.2 mL) or DMSO solvent control (n=8) through i.p. injection everyday from six weeks of age.

[10] = tested on: breast tumor development in MMTV-v-Ha-ras transgenic mice; test: Chemoprevention of breast tumor development in MMTV-v-Ha-ras transgenic mice; type: in vivo; details: emodin 1 mg/0.2 mL i.p. everyday from six weeks of age (FIG. 1B)
Method: as §1

[11] = tested on: MCF-7 cells; test: Cell morphology and viability by trypan blue exclusion; type: cell-based; details: MCF-7, 4 hour treatment
Method: The effect on estrogen receptor was not a consequence of cytotoxicity, because MCF-7 cell morphology, as well as viability as assessed by trypan blue exclusion, were not affected after 4 hour treatment of emodin. The observed decrease in estrogen receptor protein level by emodin could be explained either by diminished protein synthesis or by enhanced protein degradation. To distinguish these two possibilities, a pulse-chase experiment was performed. The cells were labeled with [^35S] methionine for 1 hour and chased for 1 to 4 hours in the presence or absence of emodin. Pulse chase experiment was performed to determine the stability of the estrogen receptor proteins after treatment with emodin (see Example 1 for experimental details). In FIG. 4A, MCF-7 cells were treated with emodin at different time intervals. In FIG. 4B, MCF-7 cells were treated with DMSO at various time intervals. In FIG. 4C, proteins were quantitated by NIH Image software and plotted as the percentage of the value at the beginning of the chase.

[12] = target: hsp90-estrogen receptor heteromeric complex (Homo sapiens, UniProt P03372); test: Co-immunoprecipitation of hsp90 and estrogen receptor; type: cell-based

Compound: CC/C(=C(\c1ccccc1)c1ccc(OCCN(C)C)cc1)c1ccccc1 [tamoxifen, reference compound]
estrogen stimulated DNA synthesis (thymidine incorporation) [1]: inhibit

Compound: COc1ccc(/C=C(\C#N)c2cccnc2)cc1OC [RG13022, reference compound]
estrogen receptor polypeptide level ([2]; MCF-7, 18 hours, genistein 100 μM, RG13022 5 μM (FIG. 3C)): significantly reduced

Compound: 4-hydroxytamoxifen [4-hydroxy-tamoxifen, reference compound]
Rb phosphorylation status [3]: remained underphosphorylated

estrogen receptor level after estrogen stimulation with proteasome inhibitor [5]: protected from degradation
Compound: CCC[C@@H](C=O)NC(=O)[C@H](CC(C)C)NC(=O)[C@H](CC(C)C)NC(=O)OCc1ccccc1 [MG115, carbobenzoxyl-leucinyl-leucinyl-norvalinal-II] (Cbz-Leu-Leu-[Nva]-aldehyde)
estrogen receptor protein level with emodin plus protease inhibitor [4]: striking suppression

Compound: Cc1cc(O)c2c(c1)C(=O)c1cc(O)cc(O)c1C2=O [emodin]
turnover of newly synthesized estrogen receptor [6]: strikingly enhanced | depletion of estrogen receptor polypeptide [7]: enhance the depletion | depletion of estrogen receptor polypeptide [8]: enhance the depletion | estrogen stimulated DNA synthesis (thymidine incorporation) [1]: […] | estrogen receptor protein level ([4]; MCF-7, 40 μM emodin alone (FIG. 6)): decreased rapidly | estrogen receptor protein level, percentage of control ([2]; MCF-7, 40 μM emodin, two hours, normalized with actin (FIG. 3B)): […] | IC50 ([2]; read-out: dose required for repressing 50% of estrogen receptor (IC50), MCF-7, 4 hours): […] | mammary tumor development [9]: chemopreventive activity | mammary tumor development [10]: chemopreventive activity | Rb phosphorylation status [3]: remained underphosphorylated | cell morphology and viability (trypan blue exclusion) [11]: not affected | amount of hsp90-bound estrogen receptor ([12]; MCF-7, 40 μM emodin (FIG. 7A)): markedly increased | cellular levels of hsp90 ([12]; MCF-7, 40 μM emodin (FIG. 7B)): remained unchanged

Compound: CC[C@H](C)[C@H](NC(=O)OCc1ccccc1)C(=O)N[C@@H](CCC(=O)OC(C)(C)C)C(=O)N[C@@H](C)C(=O)N[C@H](C=O)CC(C)C [PS1, N-Benzyloxycarbonyl-Ile-Glu(O-t-butyl)-Ala-leucinal] (Cbz-IE(OtBu)AL-aldehyde)
estrogen receptor protein level with emodin plus protease inhibitor [4]: striking suppression
